According to PubChem BioAssay AID1259407 (Chemical Carcinogenesis Research Information System (CCRIS), 2018):
Active and inactive are the calls of the source. The rule behind the calls is not given here.

Tested on: CCRIS mutagenicity, Ames/micronucleus/aberration tests
Experiment: CCRIS mutagenicity studies
[1] = Test System: AMES SALMONELLA TYPHIMURIUM, Strain/Indicator: TA100, Metabolic Activation: NONE, Method: STANDARD PLATE

BrC(Br)Br
mutagenic call (End Point: IN VITRO CHROMOSOMAL ABERRATIONS, Test System: CHO CELLS, Metabolic Activation: NONE): inactive; negative
mutagenic call (End Point: IN VITRO CHROMOSOMAL ABERRATIONS, Test System: CHO CELLS, Metabolic Activation: RAT, LIVER, S-9, AROCLOR 1254): inactive; negative
mutagenic call (End Point: IN VIVO MICRONUCLEUS, Test System: BONE MARROW POLYCHROMATIC ERYTHROCYTES, Species: MOUSE, Strain/Sex: DDY/MALE, Route: IP): inactive; negative
mutagenic call (Test System: AMES SALMONELLA TYPHIMURIUM, Strain/Indicator: RSJ100, Metabolic Activation: NONE, Method: PREINCUBATION): active; positive
mutagenic call (Test System: AMES SALMONELLA TYPHIMURIUM, Strain/Indicator: RSJ100, Metabolic Activation: NONE, Method: STANDARD PLATE): active; positive
mutagenic call (Test System: AMES SALMONELLA TYPHIMURIUM, Strain/Indicator: RSJ100, Metabolic Activation: RAT LIVER S-9, Method: PREINCUBATION): inactive; negative
mutagenic call (Test System: AMES SALMONELLA TYPHIMURIUM, Strain/Indicator: TA97, Metabolic Activation: HAMSTER, LIVER, S-9 (10% OR 30%), AROCLOR 1254, Method: PREINCUBATION): inactive; negative
mutagenic call (Test System: AMES SALMONELLA TYPHIMURIUM, Strain/Indicator: TA97, Metabolic Activation: NONE, Method: PREINCUBATION): inactive; negative
mutagenic call (Test System: AMES SALMONELLA TYPHIMURIUM, Strain/Indicator: TA97, Metabolic Activation: RAT, LIVER, S-9 (10% OR 30%), AROCLOR 1254, Method: PREINCUBATION): inactive; negative
mutagenic call (Test System: AMES SALMONELLA TYPHIMURIUM, Strain/Indicator: TA98, Metabolic Activation: HAMSTER, LIVER, S-9 (5% OR 10%), AROCLOR 1254, Method: PREINCUBATION): inactive; negative
mutagenic call (Test System: AMES SALMONELLA TYPHIMURIUM, Strain/Indicator: TA98, Metabolic Activation: HAMSTER, LIVER, S-9, AROCLOR 1254, Method: PREINCUBATION): inactive; negative
mutagenic call (Test System: AMES SALMONELLA TYPHIMURIUM, Strain/Indicator: TA98, Metabolic Activation: NONE, Method: STANDARD PLATE): inactive; negative
mutagenic call (Test System: AMES SALMONELLA TYPHIMURIUM, Strain/Indicator: TA98, Metabolic Activation: RAT LIVER S-9, Method: PREINCUBATION): active; positive
mutagenic call (Test System: AMES SALMONELLA TYPHIMURIUM, Strain/Indicator: TA98, Metabolic Activation: RAT, LIVER, S-9 (10% OR 30%), AROCLOR 1254, Method: PREINCUBATION): inactive; negative
mutagenic call (Test System: AMES SALMONELLA TYPHIMURIUM, Strain/Indicator: TA98, Metabolic Activation: RAT, LIVER, S-9, AROCLOR 1254, Method: PREINCUBATION): inactive; negative
mutagenic call (Test System: AMES SALMONELLA TYPHIMURIUM, Strain/Indicator: TA98, Metabolic Activation: RAT, LIVER, S-9, AROCLOR 1254, Method: STANDARD PLATE): inactive; negative
mutagenic call (Test System: AMES SALMONELLA TYPHIMURIUM, Strain/Indicator: TA100, Metabolic Activation: HAMSTER, LIVER, S-9 (10% OR 30%), AROCLOR 1254, Method: PREINCUBATION): inactive; negative
mutagenic call (Test System: AMES SALMONELLA TYPHIMURIUM, Strain/Indicator: TA100, Metabolic Activation: HAMSTER, LIVER, S-9, AROCLOR 1254, Method: PREINCUBATION): inactive; negative
mutagenic call (Test System: AMES SALMONELLA TYPHIMURIUM, Strain/Indicator: TA100, Metabolic Activation: NONE, Method: DESICCATOR): active; positive
mutagenic call (Test System: AMES SALMONELLA TYPHIMURIUM, Strain/Indicator: TA100, Metabolic Activation: NONE, Method: FLUCTUATION TEST): active; positive
mutagenic call [1]: inactive; negative
mutagenic call (Test System: AMES SALMONELLA TYPHIMURIUM, Strain/Indicator: TA100, Metabolic Activation: RAT LIVER S-9, Method: PREINCUBATION): inactive; negative
mutagenic call (Test System: AMES SALMONELLA TYPHIMURIUM, Strain/Indicator: TA100, Metabolic Activation: RAT, LIVER, S-9 (10% OR 30%), AROCLOR 1254, Method: PREINCUBATION): inactive; negative
mutagenic call (Test System: AMES SALMONELLA TYPHIMURIUM, Strain/Indicator: TA100, Metabolic Activation: RAT, LIVER, S-9, AROCLOR 1254, Method: FLUCTUATION TEST): inactive; negative
mutagenic call (Test System: AMES SALMONELLA TYPHIMURIUM, Strain/Indicator: TA100, Metabolic Activation: RAT, LIVER, S-9, AROCLOR 1254, Method: PREINCUBATION): inactive; negative
mutagenic call (Test System: AMES SALMONELLA TYPHIMURIUM, Strain/Indicator: TA100, Metabolic Activation: RAT, LIVER, S-9, AROCLOR 1254, Method: STANDARD PLATE): inactive; negative
mutagenic call (Test System: AMES SALMONELLA TYPHIMURIUM, Strain/Indicator: TA1535, Metabolic Activation: HAMSTER, LIVER, S-9 (10% OR 30%), AROCLOR 1254, Method: PREINCUBATION): inactive; negative
mutagenic call (Test System: AMES SALMONELLA TYPHIMURIUM, Strain/Indicator: TA1535, Metabolic Activation: HAMSTER, LIVER, S-9, AROCLOR 1254, Method: PREINCUBATION): inactive; negative
mutagenic call (Test System: AMES SALMONELLA TYPHIMURIUM, Strain/Indicator: TA1535, Metabolic Activation: NONE, Method: DESICCATOR): active; positive
mutagenic call (Test System: AMES SALMONELLA TYPHIMURIUM, Strain/Indicator: TA1535, Metabolic Activation: NONE, Method: PREINCUBATION): inactive; negative
mutagenic call (Test System: AMES SALMONELLA TYPHIMURIUM, Strain/Indicator: TA1535, Metabolic Activation: NONE, Method: STANDARD PLATE): inactive; negative
mutagenic call (Test System: AMES SALMONELLA TYPHIMURIUM, Strain/Indicator: TA1535, Metabolic Activation: RAT, LIVER, S-9 (10% OR 30%), AROCLOR 1254, Method: PREINCUBATION): inactive; negative
mutagenic call (Test System: AMES SALMONELLA TYPHIMURIUM, Strain/Indicator: TA1535, Metabolic Activation: RAT, LIVER, S-9, AROCLOR 1254, Method: PREINCUBATION): inactive; negative
mutagenic call (Test System: AMES SALMONELLA TYPHIMURIUM, Strain/Indicator: TA1535, Metabolic Activation: RAT, LIVER, S-9, AROCLOR 1254, Method: STANDARD PLATE): inactive; negative
mutagenic call (Test System: AMES SALMONELLA TYPHIMURIUM, Strain/Indicator: TA1537, Metabolic Activation: HAMSTER, LIVER, S-9 (10% OR 30%), AROCLOR 1254, Method: PREINCUBATION): inactive; negative
mutagenic call (Test System: AMES SALMONELLA TYPHIMURIUM, Strain/Indicator: TA1537, Metabolic Activation: HAMSTER, LIVER, S-9, AROCLOR 1254, Method: PREINCUBATION): inactive; negative
mutagenic call (Test System: AMES SALMONELLA TYPHIMURIUM, Strain/Indicator: TA1537, Metabolic Activation: NONE, Method: PREINCUBATION): inactive; negative
mutagenic call (Test System: AMES SALMONELLA TYPHIMURIUM, Strain/Indicator: TA1537, Metabolic Activation: NONE, Method: STANDARD PLATE): inactive; negative
mutagenic call (Test System: AMES SALMONELLA TYPHIMURIUM, Strain/Indicator: TA1537, Metabolic Activation: RAT, LIVER, S-9 (10% OR 30%), AROCLOR 1254, Method: PREINCUBATION): inactive; negative
mutagenic call (Test System: AMES SALMONELLA TYPHIMURIUM, Strain/Indicator: TA1537, Metabolic Activation: RAT, LIVER, S-9, AROCLOR 1254, Method: PREINCUBATION): inactive; negative
mutagenic call (Test System: AMES SALMONELLA TYPHIMURIUM, Strain/Indicator: TA1537, Metabolic Activation: RAT, LIVER, S-9, AROCLOR 1254, Method: STANDARD PLATE): inactive; negative
mutagenic call (Test System: MOUSE LYMPHOMA, Strain/Indicator: L5178Y (TK+/TK-), Metabolic Activation: NONE, Method: SUSPENSION/PLATE): active; positive
mutagenic call (Test System: MOUSE LYMPHOMA, Strain/Indicator: L5178Y (TK+/TK-), Metabolic Activation: RAT, LIVER, S-9, AROCLOR 1254, Method: SUSPENSION/PLATE): active; positive
mutagenic call (Test System: UDS RAT HEPATOCYTES, Strain/Indicator: THY INCORP, Metabolic Activation: NONE, Method: AUTORADIOGRAPHY): inactive; negative

CCCCN1C2c3ccccc3-c3ccccc3C21 (stereo unspecified)
mutagenic call [1]: active; positive
mutagenic call (Test System: CHINESE HAMSTER V-79, Strain/Indicator: V-79/6-THIOGUANINE, Metabolic Activation: NONE, Method: STANDARD PLATE): inactive; negative
